Key:
Type in all cases: cell-based, murine
[1] = system: RARγ−/− F9 cells; test: Apoptosis of F9 cells (Hoechst 33258 staining, FACS); conditions: 1 μM, 6 d
Procedure: (§1) Apoptosis was analyzed by both Hoechst staining of nuclei and FACS® analysis, as previously described (Clifford, J., et al., EMBO J. 15:4142-4155 (1996)).

[2] = system: WT F9 cells; test: as above; conditions: 1 μM
Procedure: as §1

[3] = system: RXRα−/−/RARγ−/− F9 cells; test: as above; conditions: 1 μM, after 5 d
[4] = system: RARα−/− F9 cells; test: as above; conditions: 1 μM, 6 d
Procedure: as §1

[5] = system: RARγ−/− F9 cells; test: Morphological differentiation of F9 cell aggregates into visceral endoderm (VE)-like cells (morphology, RT-PCR of markers)
Procedure: (§2) F9 cells were cultured and induced to differentiate into primitive, parietal and visceral endoderm-like cells as previously described (Boylan, J., et al., Proc. Natl. Acad. Sci. USA 90:9601-9605 (1993); Clifford, J., et al., EMBO J. 15:4142-4155 (1996)).
(§3) RNA preparation, RT-PCR, and Southern blotting were performed as previously described (Bouillet, P., et al., Dev. Biol. 170:420-433 (1995); Roy, B., et al., Mol. Cell. Biol. 15:6481-6487 (1995)). The PCR primers and end-labeled oligonucleotide probes for collagen IVα1, laminin B1, α-fetoprotein (AFP), and 36B4, were described previously (Clifford, J., et al ., EMBO J. 15:4142-4155 (1996)). Transcript levels were quantified using a BAS 2000 bioimaging analyzer (Fuji Ltd., Tokyo, Japan), and were normalized to the corresponding 36B4 signals.

[6] = system: RARα−/− F9 cells; test: as above; conditions: 50 nM
Description: (§4) Similarly, after 10 d of treatment, >80% of the outer layer of RARα^−/− and RXRα^−/−/RARα^−/− cell aggregates differentiated into VE-like cells, which were indistinguishable from those of WT and RXRα^−/− cells (FIG. 23A, compare f with panels b and d; and Table 9). […] To exclude the possibility that this very poor differentiation of the RXRα^−/−/RARγ^−/− cells could be due to some clonal variation, rather than the presence of the RXRα-null mutation in the RARγ-null background, we expressed the RXRα cDNA in RXRα^−/−/RARγ^−/− cells.
as §2, §3

[7] = system: WT F9 cells; test: as above; conditions: 50 nM, 10 d
Description: as §4, §2, §3

[8] = system: RXRα−/−/RARα−/− F9 cells; test: Proliferation of F9 cells in monolayer culture (cell counting, [3H]thymidine incorporation, cell cycle FACS); conditions: 1 μM, 5 d
[9] = system: RXRα−/− F9 cells; test: Morphological differentiation of F9 cell aggregates into visceral endoderm (VE)-like cells (morphology, RT-PCR of markers); conditions: 50 nM, 10 d
Description: (§5) Transcript levels were quantified using a BAS 2000 bioimaging analyzer (Fuji Ltd., Tokyo, Japan), and were normalized to the corresponding 36B4 signals.

[10] = system: RXRα−/−/RARα−/− F9 cells; test: as above; conditions: 50 nM
Description: as §5

[11] = system: RXRα−/−/RARγ−/− F9 cells; test: as above
Description: as §5

[12] = system: RXRα−/− F9 cells; test: Differentiation of F9 cells into primitive and parietal endoderm-like cells in monolayer (morphology, RT-PCR of collagen type IVα1 and laminin B1); conditions: 1 μM, 48 h
Description: (§6) The differentiation patterns of RXRα^−/−/RARα^−/−and RXRα^−/−/RARγ^−/− cells were compared with those of WT and single knockout cell lines.
as §5

[13] = system: RXRα−/−/RARα−/− F9 cells; test: as above
Description: as §6, §5

[14] = system: RXRα−/−/RARγ−/− F9 cells; test: as above
Description: as §6, §5

[15] = system: RXRα−/−/RARα−/− F9 cells; test: Apoptosis of F9 cells (Hoechst 33258 staining, FACS); conditions: 1 μM
[16] = system: RARγ−/− F9 cells; test: Differentiation of F9 cells into primitive and parietal endoderm-like cells in monolayer (morphology, RT-PCR of collagen type IVα1 and laminin B1); conditions: 1 μM, 48 h
Procedure: as §6, §2, §3

[17] = system: RARα−/− F9 cells; test: as above; conditions: 1 μM, 48 h
Procedure: as §6, §2, §3

[18] = system: RXRα−/− F9 cells; test: Apoptosis of F9 cells (Hoechst 33258 staining, FACS); conditions: 1 μM
[19] = 1 μM tRA alone or with 250 μM bt2cAMP, after 4 d

CC1=C(/C=C/C(C)=C/C=C/C(C)=C/C(=O)O)C(C)(C)CCC1 [tRA, all-trans retinoic acid]
proportion of apoptotic nuclei and subcellular fragments (Hoechst 33258) [1]: + (>1-10%)
proportion of apoptotic nuclei and subcellular fragments (Hoechst 33258) ([2]; 6 d): ++ (>10%)
sub-2N size DNA-containing particles ('apoptotic bodies'), FACS ([2]; after 5 d): appeared
sub-2N size DNA-containing particles ('apoptotic bodies'), FACS [3]: not detected
proportion of apoptotic nuclei and subcellular fragments (Hoechst 33258) [4]: ++ (>10%)
induction of AFP mRNA ([5]; RARγ−/− aggregates, 50 nM, 10 d): hardly detectable
proportion of outer layer of cells displaying VE morphology ([5]; RARγ−/−, 50 nM, 10 d): ± (not more than 10%)
outer layer of cells exhibiting VE conversion ([5]; RARγ−/−, 50 nM, after 10 d): < 10%
proportion of outer layer of cells displaying VE morphology ([5]; RARγ−/−, 50 nM, after 14 d of treatment): +++ (more than 80%)
VE differentiation ([5]; RARγ−/−, after 14 d of treatment): full VE differentiation was eventually achieved
proportion of outer layer of cells displaying VE morphology ([6]; 10 d): +++ (more than 80%)
outer layer of cell aggregates differentiated into VE-like cells ([6]; after 10 d): > 80%
induction of collagen type IVα1, laminin B1 and AFP mRNA ([7]; WT aggregates): similarly induced
proportion of outer layer of cells displaying VE morphology ([7]; WT): +++ (more than 80%)
proportion of cells in the G0 and G1 phases (FACS) [8]: 40%
proportion of outer layer of cells displaying VE morphology [9]: +++ (more than 80%)
induction of collagen type IVα1, laminin B1 and AFP mRNA ([10]; RXRα−/−/RARα−/− aggregates, 10 d): similarly induced
proportion of outer layer of cells displaying VE morphology ([10]; RXRα−/−/RARα−/−, 10 d): +++ (more than 80%)
outer layer of cell aggregates differentiated into VE-like cells ([10]; RXRα−/−/RARα−/−, after 10 d): > 80%
induction of collagen IVα1, laminin B1 or AFP mRNA ([11]; RXRα−/−/RARγ−/− aggregates, 50 nM, 10 d): no induction
surface of the aggregates ([11]; RXRα−/−/RARγ−/−, 50 nM, after 10 days): as smooth after 10 days of treatment as in untreated controls
aggregates displaying only a spotty VE conversion ([11]; RXRα−/−/RARγ−/−, after 12 or 18 d of treatment): < 10%
induction of collagen type IVα1 mRNA, lower level compared to WT cells [12]: 3 fold
induction of laminin B1 mRNA, lower level compared to WT cells [12]: 6 fold
cells with morphological characteristics of primitive or parietal endodermal differentiation [13, 19]: < 10%
induction of collagen type IVα1 mRNA, lower level compared to WT cells ([13]; 1 μM, 48 h): five
morphological differentiation [14, 19]: No morphological differentiation at all
induction of collagen type IVα1 and laminin B1 mRNA ([14]; 1 μM, 48 h): fully abrogated
cells exhibiting a differentiated morphology ([14]; after 6 days of treatment): < 0.1%
morphological differentiation ([14]; after 10 d of treatment): undifferentiated phenotype persisted
proportion of apoptotic nuclei and subcellular fragments (Hoechst 33258) ([15]; 6 d): ± (<1%)
sub-2N size DNA-containing particles ('apoptotic bodies'), FACS ([15]; after 5 d): not detected
induction of collagen type IVα1 mRNA, lower level compared to WT cells [16]: 10 fold
induction of laminin B1 mRNA, lower level compared to WT cells [16]: 6 fold
induction of collagen type IVα1 and laminin B1 mRNA compared to WT cells [17]: not altered
proportion of apoptotic nuclei and subcellular fragments (Hoechst 33258) ([18]; 6 d): ± (<1%)
sub-2N size DNA-containing particles ('apoptotic bodies'), FACS ([18]; after 5 d): not detected

— US6521814B1, “Use of ligands for treatment of diseases responsive to retinoids” (Institut National de la Santa et de la Recherche Medicale, priority 1997, dated 2003)
